Results published in ChEMBL document CHEMBL4145553, “Design, synthesis, and biological evaluation of novel amide and hydrazide based thioether analogs targeting Histone deacteylase (HDAC) enzymes” (Eur J Med Chem, 2018).

Tests used:
CAKI-1 = assay: Growth inhibition of human Caki1 cells at 10 uM incubated for 48 hrs by sulforhodamine B assay relative to control; assay type: functional; details: CAKI-1, 48 h, values are per cent of control
SW-620 = assay: Growth of human SW620 cells at 10 uM incubated for 48 hrs by sulforhodamine B assay relative to control; details: SW-620, 48 h
NCI-H23 = assay: Growth inhibition of human NCI-H23 cells at 10 uM incubated for 48 hrs by sulforhodamine B assay relative to control; assay type: functional; details: NCI-H23, 48 h, values are per cent of control
MDA-MB-468 = assay: Growth inhibition of human MDA-MB-468 cells at 10 uM incubated for 48 hrs by sulforhodamine B assay relative to control; assay type: functional; details: MDA-MB-468, 48 h, values are per cent of control
MOLT-4 = assay: Growth of human MOLT4 cells at 10 uM incubated for 48 hrs by sulforhodamine B assay relative to control; details: MOLT-4, 48 h
TK-10 = assay: Growth inhibition of human TK10 cells at 10 uM incubated for 48 hrs by sulforhodamine B assay relative to control; assay type: functional; details: TK-10, 48 h, values are per cent of control
NCI-H460 = assay: Growth inhibition of human NCI-H460 cells at 10 uM incubated for 48 hrs by sulforhodamine B assay relative to control; assay type: functional; details: NCI-H460, 48 h, values are per cent of control
EKVX = assay: Growth of human EKVX cells at 10 uM incubated for 48 hrs by sulforhodamine B assay relative to control
NCI-H226 = assay: Growth inhibition of human NCI-H226 cells at 10 uM incubated for 48 hrs by sulforhodamine B assay relative to control; assay type: functional; details: NCI-H226, 48 h, values are per cent of control
SK-MEL-2 = assay: Growth of human SK-MEL-2 cells at 10 uM incubated for 48 hrs by sulforhodamine B assay relative to control; details: SK-MEL-2, 48 h
OVCAR-3 = assay: Growth of human OVCAR3 cells at 10 uM incubated for 48 hrs by sulforhodamine B assay relative to control; details: OVCAR-3, 48 h
DU-145 = assay: Growth inhibition of human DU145 cells at 10 uM incubated for 48 hrs by sulforhodamine B assay relative to control; assay type: functional; details: DU-145, 48 h, values are per cent of control
NCI-H522 = assay: Growth of human NCI-H522 cells at 10 uM incubated for 48 hrs by sulforhodamine B assay relative to control; details: NCI-H522, 48 h
PC-3 = assay: Growth inhibition of human PC3 cells at 10 uM incubated for 48 hrs by sulforhodamine B assay relative to control; assay type: functional; details: PC-3, 48 h, values are per cent of control
CCRF-CEM = assay: Growth of human CCRF-CEM cells at 10 uM incubated for 48 hrs by sulforhodamine B assay relative to control
SR = assay: Growth of human SR cells at 10 uM incubated for 48 hrs by sulforhodamine B assay relative to control
HCT-15 = assay: Growth of human HCT15 cells at 10 uM incubated for 48 hrs by sulforhodamine B assay relative to control; details: HCT-15, 48 h
SK-OV-3 = assay: Growth inhibition of human SKOV3 cells at 10 uM incubated for 48 hrs by sulforhodamine B assay relative to control; assay type: functional; details: SK-OV-3, 48 h, values are per cent of control
HL-60(TB) = assay: Growth inhibition of human HL-60(TB) cells at 10 uM incubated for 48 hrs by sulforhodamine B assay relative to control; assay type: functional; details: HL-60, 48 h, values are per cent of control
Hs-578T = assay: Growth inhibition of human Hs 578T cells at 10 uM incubated for 48 hrs by sulforhodamine B assay relative to control; assay type: functional; details: values are per cent of control
NCI-H322M = assay: Growth inhibition of human NCI-H322M cells at 10 uM incubated for 48 hrs by sulforhodamine B assay relative to control; assay type: functional; details: values are per cent of control
SF-539 = assay: Growth of human SF539 cells at 10 uM incubated for 48 hrs by sulforhodamine B assay relative to control; details: SF-539, 48 h
OVCAR-8 = assay: Growth of human OVCAR8 cells at 10 uM incubated for 48 hrs by sulforhodamine B assay relative to control; details: OVCAR-8, 48 h
HCC 2998 = assay: Growth of human HCC2998 cells at 10 uM incubated for 48 hrs by sulforhodamine B assay relative to control; details: HCC 2998, 48 h
786-0 = assay: Growth inhibition of human 786-0 cells at 10 uM incubated for 48 hrs by sulforhodamine B assay relative to control; assay type: functional; details: 786-0, 48 h, values are per cent of control
MDA-MB-435 = assay: Growth of human MDA-MB-435 cells at 10 uM incubated for 48 hrs by sulforhodamine B assay relative to control; details: MDA-MB-435, 48 h
ACHN = assay: Growth inhibition of human ACHN cells at 10 uM incubated for 48 hrs by sulforhodamine B assay relative to control; assay type: functional; details: values are per cent of control

| SMILES | growth, % of control at 10 µM (CAKI-1) | growth, % of control at 10 µM (SW-620) | growth, % of control at 10 µM (NCI-H23) | growth, % of control at 10 µM (MDA-MB-468) | growth, % of control at 10 µM (MOLT-4) | growth, % of control at 10 µM (TK-10) | growth, % of control at 10 µM (NCI-H460) | growth, % of control at 10 µM (EKVX) | growth, % of control at 10 µM (NCI-H226) | growth, % of control at 10 µM (SK-MEL-2) | growth, % of control at 10 µM (OVCAR-3) | growth, % of control at 10 µM (DU-145) | growth, % of control at 10 µM (NCI-H522) | growth, % of control at 10 µM (PC-3) | growth, % of control at 10 µM (CCRF-CEM) | growth, % of control at 10 µM (SR) | growth, % of control at 10 µM (HCT-15) | growth, % of control at 10 µM (SK-OV-3) | growth, % of control at 10 µM (HL-60(TB)) | growth, % of control at 10 µM (Hs-578T) | other results |
| --- | --- | --- | --- | --- | --- | --- | --- | --- | --- | --- | --- | --- | --- | --- | --- | --- | --- | --- | --- | --- | --- |
| CC(C)(C)S/C(Nc1ccccc1)=C(\C#N)C(=O)N/N=C\c1ccc(Cl)cc1Cl | 98.4% | 105% | 92.5% | 98.9% | 86.2% | 99.1% | 101% | 101% | 92.6% | 91.6% | 98.6% | 113% | 82.7% | 96.3% | 88.3% | 70% | 102% | 101% | 89.2% | 90.1% | growth, % of control at 10 µM (NCI-H322M): 99.8%; growth, % of control at 10 µM (SF-539): 98%; growth, % of control at 10 µM (OVCAR-8): 97.3%; growth, % of control at 10 µM (HCC 2998): 98.6%; growth, % of control at 10 µM (786-0): 97.8%; growth, % of control at 10 µM (MDA-MB-435): 104%; growth, % of control at 10 µM (ACHN): 105% |
| CC(C)(C)S/C(Nc1ccccc1)=C(\C#N)C(=O)N/N=C\c1ccco1 | 95.8% | 94.4% | 99% | 95.8% | 88.6% | 103% | 102% | 91.9% | 92% | 103% | 106% | 109% | 71.1% | 90.7% | 92.2% | 76.5% | 99.2% | 89.3% | 63.6% | 92.5% | growth, % of control at 10 µM (NCI-H322M): 102%; growth, % of control at 10 µM (SF-539): 94.3%; growth, % of control at 10 µM (OVCAR-8): 94.9%; growth, % of control at 10 µM (HCC 2998): 107%; growth, % of control at 10 µM (786-0): 102%; growth, % of control at 10 µM (MDA-MB-435): 101%; growth, % of control at 10 µM (ACHN): 98% |
| CCS/C(Nc1ccccc1)=C(\C#N)C(=O)Nc1ccccc1 | 87.5% | 103% | 94.3% | 90.7% | 69.2% | 76.7% | 99.5% | 100% | 92.9% | 87.6% | 88.9% | 102% | 65.7% | 92.4% | 82.4% | 70.3% | 93.7% | 88.2% | 58.1% | 96.9% | growth, % of control at 10 µM (NCI-H322M): 97.2%; growth, % of control at 10 µM (SF-539): 104%; growth, % of control at 10 µM (OVCAR-8): 94.2%; growth, % of control at 10 µM (HCC 2998): 96.1%; growth, % of control at 10 µM (786-0): 88.5%; growth, % of control at 10 µM (MDA-MB-435): 110%; growth, % of control at 10 µM (ACHN): 102% |
| CCS/C(Nc1ccccc1)=C(\C#N)C(=O)N/N=C\c1ccco1 | 95.9% | 103% | 96.5% | 91.4% | 76.3% | 103% | 110% | 101% | 95.2% | 94.3% | 104% | 106% | 75.7% | 99.4% | 91.2% | 85.1% | 106% | 99.3% | 84.2% | 101% | growth, % of control at 10 µM (NCI-H322M): 101%; growth, % of control at 10 µM (SF-539): 98.7%; growth, % of control at 10 µM (OVCAR-8): 92.1%; growth, % of control at 10 µM (HCC 2998): 107%; growth, % of control at 10 µM (786-0): 100%; growth, % of control at 10 µM (MDA-MB-435): 105%; growth, % of control at 10 µM (ACHN): 105% |
| CC(C)(C)S/C(Nc1ccccc1)=C(\C#N)C(=O)Nc1ccccc1 | 95% | 103% | 99.8% | 92.8% | 69.7% | 90.9% | 103% | 101% | 88.9% | 94% | 108% | 107% | 80.3% | 95.2% | 86.4% | 82.3% | 101% | 105% | 82.3% | 99.6% | growth, % of control at 10 µM (NCI-H322M): 101%; growth, % of control at 10 µM (SF-539): 100%; growth, % of control at 10 µM (OVCAR-8): 99.8%; growth, % of control at 10 µM (HCC 2998): 106%; growth, % of control at 10 µM (786-0): 94.3%; growth, % of control at 10 µM (MDA-MB-435): 104%; growth, % of control at 10 µM (ACHN): 103% |
